{"source": "patent US12697477B2", "about": "“Device for delivery of antimicrobial agent into a medical device” (ICU Medical, Inc., priority 2011, dated 2026)", "assay_type_in_all_cases": "cell-based", "key": {"Candida albicans": {"tested_on": "Candida albicans", "experiment": "Coated cap luer against Candida albicans seeded within the catheter's luer region", "details": "50 μg coated on the cap's luer portion", "experimental": "For instance, if using a chlorhexidine based antimicrobial, approximately 50 μg of chlorhexidine acetate can be effective in some embodiments. […] The caps containing the coated luers killed all of the Candida albicans that were seeded within the catheter's luer region. Within the same experiment, the Candida albicans remained viable when uncoated caps were used. Greater than 5 μg chlorhexidine acetate on the luer region is effective; 10 μg to 300 μg is preferred, and 30 μg to 80 μg is most preferred."}, "[1]": {"tested_on": "Candida albicans, Pseudomonas aeruginosa, Staphylococcus aureus, and Escherichia coli", "experiment": "Laboratory testing of elongate members in catheters under a variety of lock solutions and challenge organisms", "details": "lock solutions saline, heparinized-saline, 4% sodium citrate solution, human serum", "experimental": "The minimum amount of antimicrobial agent on elongate member 33 was determined through laboratory testing in which elongate members were placed into catheters under a variety of lock solutions and challenge organisms. The type of lock solution was varied among saline, heparinized-saline, 4% sodium citrate solution, and human serum. A variety of challenge organisms were used, such as Candida albicans, Pseudomonas aeruginosa, Staphylococcus aureus, and Escherichia coli."}, "[2]": {"tested_on": "infection-causing organisms", "experiment": "Laboratory testing of the coated elongate member in standard hemodialysis catheters", "details": "250 μg on the elongate member; catheters containing saline, heparin-saline, or saline with 4% sodium citrate", "experimental": "The safety profile of the invention can be enhanced by limiting the amount of chlorhexidine acetate available to enter the bloodstream, the preferred maximum amount of chlorhexidine acetate on the elongate member is 2000 μg, more preferred is 1000 μg, and most preferred is 350 μg."}}, "data": [{"compound": "CC(=O)O.CC(=O)O.NC(=N\\CCCCCC/N=C(N)/N=C(\\N)Nc1ccc(Cl)cc1)/N=C(\\N)Nc1ccc(Cl)cc1", "note": "[chlorhexidine acetate]", "values": [{"measurement": "kill of Candida albicans seeded within the catheter's luer region", "setting": "Candida albicans", "result": "killed all"}, {"measurement": "organisms killed in the catheter versus amount on the elongate member", "setting": "[1]", "result": "dose response"}, {"measurement": "reduction in number of infection-causing organisms", "setting": "[2]", "result": "> 10,000 ×"}]}]}
